Source: publication PMC11790763, “A Peptide Motif Covering Splice Site B in Neuroligin-1 Binds to Aβ and Acts as a Neprilysin Inhibitor” (Molecular Neurobiology, 2024)
Bridges are numbered along the chain shown (N, C = ends). Roman numbers before positions name the chains, in order. Where no end group is shown, it is not given here.

B1: NL1: recombinant rat neuroligin-1, soluble ectodomain (R&D systems) (protein, UniProt Q62765 46-697, looked up)
extracellular domain: QKLDDVDPLVTTNFGKIRGIKKELNNEILGPVIQFLGVPYAAPPTGEHRFQPPEPPSPWSDIRNATQFAPVCPQNIIDGRLPEVMLPVWFTNNLDVVSSYVQDQSEDCLYLNIYVPTEDVKRISKECARKPGKKICRKGDIRDSGGPKPVMVYIHGGSYMEGTGNLYDGSVLASYGNVIVITVNYRLGVLGFLSTGDQAAKGNYGLLDLIQALRWTSENIGFFGGDPLRITVFGSGAGGSCVNLLTLSHYSEGNRWSNSTKGLFQRAIAQSGTALSSWAVSFQPAKYARILATKVGCNVSDTVELVECLQKKPYKELVDQDVQPARYHIAFGPVIDGDVIPDDPQILMEQGEFLNYDIMLGVNQGEGLKFVENIVDSDDGVSASDFDFAVSNFVDNLYGYPEGKDVLRETIKFMYTDWADRHNPETRRKTLLALFTDHQWVAPAVATADLHSNFGSPTYFYAFYHHCQTDQVPAWADAAHGDEVPYVLGIPMIGPTELFPCNFSKNDVMLSAVVMTYWTNFAKTGDPNQPVPQDTKFIHTKPNRFEEVAWTRYSQKDQLYLHIGLKPRVKEHYRANKVNLWLELVPHLHNLNDISQYTSTTTKVPSTDITLRPTRKNSTPVTSAFPTAKQDDPKQQPSPFSVDQRDYSTELS
modifications: extracellular domain

Tests used:
[1] = Integrity after prolonged incubation under aggregation assay conditions (immunoblot); type: physicochemical; settings: aggregation buffer 50 mM Tris pH 7.4, 37 °C, 8 days; His-tagged NL1 200 nM, biotinylated neurolide 6.7 μM; SDS-PAGE and Western blot versus fresh samples
Description: After 8-day incubation, they were subjected to conventional SDS polyacrylamide gel electrophoresis on a pre-casted gel (Any kD Mini-PROTEAN TGX gel, Bio-Rad) and transferred to a PVDF membranes (Millipore) together with freshly prepared samples of sNL1 and b-neurolide as corresponding positive controls. Subsequently, membranes were blocked in 5% (wt/vol) non-fat dry milk in PBST (PBS containing 0.05% [vol/vol] Tween-20). To detect sNL1, blots were probed overnight with a 6x-His tag monoclonal antibody (1:2000, Thermo Fisher Scientific) at 4 °C, followed by incubation for 1 h at room temperature with an anti-mouse horseradish peroxidase (HRP)-conjugated secondary antibody (1:10,000, Thermo Fisher Scientific). B-neurolide was detected by incubation for 1 h at room temperature with a streptavidin-HRP complex (1:5000, Dako). Chemiluminescent signal on the blot was developed by employing the SuperSignal ELISA Femto Substrate kit (Thermo Fisher Scientific) according to the manufacturer’s instructions, and images were acquired using an AlphaImager system (Alpha Innotech).
Supplementary file 12035_2024_4475_Fig8_ESM.png: Supplementary Fig. 3. […] NL1 (200 nM; R&D Systems) and biotinylated neurolide (6.7 μM; Schafer-N) were dissolved in the aggregation buffer, incubated at 37°C for 8 days, followed by conventional immunoblotting. […]

Aβ1-40 = biological target: T1, Aβ1-40 (Homo sapiens, UniProt P05067); test: Competitive ELISA, binding to biotinylated Aβ1-40
T1 construct: biotinylated Aβ1-40, at final concentration 400 nM; purchased Bachem AG (Bubendorf, Switzerland) or Schafer-N; host or cells: synthetic peptide
T1 sequence (P05067 672-711): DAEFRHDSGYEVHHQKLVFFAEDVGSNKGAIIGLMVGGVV
Description: NL1 and NL1-derived peptide binding to Aβ was measured by competitive ELISA using the shorter Aβ1-40 peptide with a slower polymerization constant, optimized for this binding assay. Recombinant NL1 (3.125 nM) was immobilized on a poly-sorb 96-well plate (NUNC, Roskilde, Denmark) using sodium bicarbonate buffer (pH 9.6), and left overnight at 4 °C, followed by washing with PBST buffer (PBS supplemented with 0.1% [vol/vol] Tween-20, pH 7.4). In separate tubes, biotinylated Aβ1-40, at final concentration 400 nM, was premixed with serially diluted NL1 or NL1-derived peptides for 30 min. A reversed version of Aβ (Aβ40-1) was used as the respective negative control (Supplementary Fig. 1). After preincubation, the samples were centrifuged at 20,000 × g for 10 min at 4 °C and 100 μl of the mixtures were transferred in triplicates onto the precoated ELISA plate. Plates were incubated at room temperature for 4 h, followed by washing and incubation with streptavidin-HRP conjugate (1:1000, 1 h; Dako, Glostrup, Denmark). The signal was developed with TMB ONE (KEM-EN-TEC, Denmark), and the reaction was terminated with 0.2 M H2SO4. Absorbance was measured at 450 nm on a Wallac VICTOR2 1420 Multilabel Counter (PerkinElmer, Hvidovre, Denmark). KD values were derived by sigmoidal dose–response (variable slope) fit of NL1 and neurolide dose–response curves after log transformation according to GraphPad Prism (version 6, GraphPad, San Diego, CA, USA). Obtained inhibitory concentration IC50 value was interpreted as KD value.

[2] = cited from earlier work
WT and 5XFAD mice = test: Y-maze test; type: in vivo, mouse; settings: 10 mg/kg s.c. three times a week for 10 weeks
Description: (§1) At the age of 2 months, 5XFAD and WT mice were injected subcutaneously (s.c.) with either neurolide (10 mg/kg) or saline in a volume of 0.1 ml/10 g of body weight three times a week for 10 weeks.
To estimate the effect of neurolide on spatial working memory, the Y-maze test was used, wherein the recording of alternation behavior was assessed. Mice were placed in the middle of the three-arm maze, joined with equal angle between all arms, and allowed to explore the maze freely for 8 min. The sequence and total number of entries into each arm were assessed in video recordings. Arm entry was considered completed when the hind paws of the mouse had been placed in the arm. An actual alternation was defined as entries into all three arms on consecutive choices. Percentage alternation was calculated as the ratio of actual to possible alternation (defined as total number of arm entries − 2) × 100, as follows: %Alternation=Number of alternations/Total arm entries-2×100.

5XFAD mice = test: GFAP immunoreactivity (astrogliosis) in cortex; type: in vivo, mouse; settings: 10 mg/kg s.c. three times a week for 10 weeks, neurolide n = 11 versus vehicle n = 13, p < 0.01
Description: as §1
After 10 weeks of treatment, mice were transcardially perfused with 0.1 M PBS, pH 7.4 under deep pentobarbital anesthesia (intraperitoneal, 200 mg/kg). The left brain hemispheres were postfixed in 4% paraformaldehyde in PBS. The brain hemispheres were further dehydrated in ethanol, cleared, embedded in paraffin blocks and serially sectioned into 7-μm coronal sections through the entire brain hemisphere. Parallel series of sections were collected, consisting of 12 equally spaced Sects. (400 μm apart). One of the series was stained with 1% Thioflavin-S for histological evaluation of Aβ plaque formation. Another series was used for immunohistochemical staining of GFAP + astrocytes as described previously. Extracellular Aβ plaque load was assessed in cortex, hippocampus, striatum, thalamus, and hypothalamus. GFAP-positive astrocytes were assessed in motor cortex. Serial super images of whole-brain sections were acquired using an Olympus BX-51 microscope equipped with the Visiopharm Integrator System software (Visiopharm) and analyzed using the ImageJ software package. […] The area, covered by Thioflavin-S or GFAP staining, was measured in selected regions.

| Molecule | integrity after prolonged incubation [1] | binding affinity to Aβ, times lower than that of the parent sNL1 domain (Aβ1-40) | passage of the blood–brain-barrier [2] | plasma/CSF ratio ([2]; systemically given) | levels in CSF ([2]; within 30 min after single s.c. administration) | Y-maze number of arms entered (WT and 5XFAD mice; p-value for treatment 0.9532) | Y-maze alternation rate (WT and 5XFAD mice; test at week 11) | area of GFAP-immunoreactivity (gliosis) in the cortex (5XFAD mice) |
| --- | --- | --- | --- | --- | --- | --- | --- | --- |
| I: SEGNRWSNSTKGLFQRAKK-NH2 / II: SEGNRWSNSTKGLFQRAK / III: SEGNRWSNSTKGLFQRA / IV: SEGNRWSNSTKGLFQRA (amide I:18-IV:C, I:19-II:C, II:18-III:C; C-terminus assumed) [neurolide] | remained intact | approximately 2 times | in the range of nanograms | approximately 20 | nanogram/low microgram levels | had no effect | had no effect | significant increase |
| B1 | remained intact |  |  |  |  |  |  |  |
